This note sets out measurements from patent publication US20110082130A1 (LIGAND PHARMACEUTICALS, INC., priority 2006, published 2011).

T1 sequence (Q9Y5N1 with tags, fused parts or gaps): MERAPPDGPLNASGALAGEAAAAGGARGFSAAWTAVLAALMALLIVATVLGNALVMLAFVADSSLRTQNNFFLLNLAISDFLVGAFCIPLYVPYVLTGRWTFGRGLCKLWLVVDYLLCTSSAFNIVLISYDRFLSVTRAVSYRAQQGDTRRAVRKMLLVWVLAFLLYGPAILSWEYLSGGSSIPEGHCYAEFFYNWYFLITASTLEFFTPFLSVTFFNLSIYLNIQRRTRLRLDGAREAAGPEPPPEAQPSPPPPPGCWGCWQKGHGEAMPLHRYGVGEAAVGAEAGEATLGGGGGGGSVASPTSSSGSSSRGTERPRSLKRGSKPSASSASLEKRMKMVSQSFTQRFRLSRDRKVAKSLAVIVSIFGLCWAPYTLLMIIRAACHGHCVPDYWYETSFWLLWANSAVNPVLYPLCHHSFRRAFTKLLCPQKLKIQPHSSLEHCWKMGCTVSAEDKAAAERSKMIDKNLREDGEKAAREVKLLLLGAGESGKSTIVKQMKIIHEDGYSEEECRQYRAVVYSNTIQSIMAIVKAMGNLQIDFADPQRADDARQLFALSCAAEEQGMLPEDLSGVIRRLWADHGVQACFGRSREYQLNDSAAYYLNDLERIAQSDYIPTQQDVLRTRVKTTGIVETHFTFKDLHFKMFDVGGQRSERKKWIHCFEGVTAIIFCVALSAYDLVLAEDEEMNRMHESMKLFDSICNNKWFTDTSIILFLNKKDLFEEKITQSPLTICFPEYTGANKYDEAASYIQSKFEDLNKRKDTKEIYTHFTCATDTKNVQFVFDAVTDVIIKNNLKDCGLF

The first assay addresses T1, chimeric human H3 receptor (Homo sapiens, UniProt Q9Y5N1).
T1 construct: made in house; host or cells: Sf9 insect cells (baculovirus); P2 membrane preparation
Kind of assay: Chimeric human H3 receptor GTP binding assay (agonist-stimulated GTP-gamma35S binding, Example 7). It counts as biochemical. The note with it: Table I; P2 membranes of Sf9 cells, 1 μM histamine as agonist, Ki from IC50 by Cheng-Prusoff. In a few lines: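 Sf9 membranes co-expressing chimeric human H3 receptor and heterotrimeric G-protein, 35 μg/tube, in pH 7.4 Tris buffer with 10 μM GDP. Test compounds (10^−10–10^−6 M) competed against 1 μM histamine, […] GTP-gamma35S, 60 min at room temperature. Filter-bound radioactivity counted; IC50 converted to Ki by Cheng-Prusoff. Agonism/inverse agonism tested without histamine (EC50).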
Background: GTPγS resists hydrolysis and so accumulates on activated G proteins.
On to `CC(=O)c1ccc(-c2cnc3n2CCN(CC(=O)N2CCN(C4CCC4)CC2)C3)cc1` [Compound 82, 1-(4-{7-[2-(4-cyclobutylpiperazin-1-yl)-2-oxoethyl]-5,6,7,8-tetrahydroimidazo[1,2-a]pyrazin-3-yl}phenyl)ethanone], for which the Ki (in general, the equilibrium dissociation constant of an inhibitor or competing ligand from its target) was < 1000 nM.

Regarding `CNC(=O)c1ccc(-c2ccc3c(c2)CCN(CC(=O)N2CCN(C4CCC4)CC2)C3)cc1` [Compound 72, 4-{2-[2-(4-cyclobutylpiperazin-1-yl)-2-oxoethyl]-1,2,3,4-tetrahydroisoquinolin-6-yl}-N-methylbenzamide], the Ki is < 1000 nM.

For `CC(C)N1CCN(C(=O)CN2CCc3ccccc3C2c2ccccc2Cl)CC1` (centres unmarked) [Compound 59, 1-(2-chlorophenyl)-2-[2-(4-isopropylpiperazin-1-yl)-2-oxoethyl]-1,2,3,4-tetrahydroisoquinoline], the Ki was < 1000 nM.

With `CC(C)N1CCN(C(=O)CN2CCc3ccccc3C2CC2CCCC2)CC1` (centres unmarked) [Compound 54, 1-(cyclopentylmethyl)-2-[2-(4-isopropylpiperazin-1-yl)-2-oxoethyl]-1,2,3,4-tetrahydroisoquinoline], the Ki is < 1000 nM.

Still in this assay, the particulars now being: Table II "Ki", symbol *; assay of Example 7.
For the molecule `CN(C)Cc1cccc(-c2ccc3c(c2)CCN(CC(=O)N2CCN(C4CCC4)CC2)C3)c1` [Compound 641, 1-(3-{2-[2-(4-cyclobutylpiperazin-1-yl)-2-oxoethyl]-1,2,3,4-tetrahydroisoquinolin-6-yl}phenyl)-N,N-dimethylmethanamine], the Ki is < 1000 nM.

`COC[C@@H]1CCCN1c1ccc2c(n1)CCN(CC(=O)N1CCN(C3CCC3)CC1)C2` [Compound 678, 6-[2-(4-cyclobutylpiperazin-1-yl)-2-oxoethyl]-2-[(2S)-2-(methoxymethyl)pyrrolidin-1-yl]-5,6,7,8-tetrahydro-1,6-naphthyridine]: the Ki was < 1000 nM.

Take `O=C(CN1CCc2cc(-c3nccc(C(F)(F)F)n3)ccc2C1)N1CCN(C2CCC2)CC1` [Compound 636, 2-[2-(4-cyclobutylpiperazin-1-yl)-2-oxoethyl]-6-[4-(trifluoromethyl)pyrimidin-2-yl]-1,2,3,4-tetrahydroisoquinoline]: the Ki is < 1000 nM.

In the case of `O=C(CN1CCc2nc(NCC3CCCCC3)ccc2C1)N1CCN(C2CCC2)CC1` [Compound 659, 6-[2-(4-cyclobutylpiperazin-1-yl)-2-oxoethyl]-N-(cyclohexylmethyl)-5,6,7,8-tetrahydro-1,6-naphthyridin-2-amine], the Ki is < 1000 nM.

With `COc1cc(F)c(-c2ccc3c(c2)CCN(CC(=O)N2CCN(C4CCC4)CC2)C3)cc1F` [Compound 506, 2-[2-(4-cyclobutylpiperazin-1-yl)-2-oxoethyl]-6-(2,5-difluoro-4-methoxyphenyl)-1,2,3,4-tetrahydroisoquinoline], the Ki was < 1000 nM.

Still in this assay, the particulars now being: Table II; "*" = Ki in assay of Example 7 less than 1 micromolar.
`O=C(CN1CCc2nn(-c3ccc(C4CC4)nn3)cc2C1)N1CCN(C2CCC2)CC1` [Compound 260, 5-[2-(4-cyclobutylpiperazin-1-yl)-2-oxoethyl]-2-(6-cyclopropylpyridazin-3-yl)-4,5,6,7-tetrahydro-2H-pyrazolo[4,3-c]pyridine]: the Ki was < 1000 nM.

For `O=C(NC1CCCC1)c1ccc2c(c1)CCN(CC(=O)N1CCN(C3CCC3)CC1)C2` [Compound 88, 2-[2-(4-cyclobutylpiperazin-1-yl)-2-oxoethyl]-N-cyclopentyl-1,2,3,4-tetrahydroisoquinoline-6-carboxamide], the Ki is < 1000 nM.

`O=C(CN1CCc2cc(-n3cc4ccccc4n3)ccc2C1)N1CCN(C2CCC2)CC1` [Compound 229, 2-[2-(4-cyclobutylpiperazin-1-yl)-2-oxoethyl]-6-(2H-indazol-2-yl)-1,2,3,4-tetrahydroisoquinoline]: the Ki is < 1000 nM.

In the case of `O=C(CN1CCc2nc(C3CC3)ncc2C1)N1CCN(C2CCC2)CC1` [Compound 276, 6-[2-(4-cyclobutylpiperazin-1-yl)-2-oxoethyl]-2-cyclopropyl-5,6,7,8-tetrahydropyrido[4,3-d]pyrimidine], the Ki is < 1000 nM.

With `CCOC(=O)c1ccc2c(c1)CCN(CC(=O)N1CCN(C3CCC3)CC1)C2` [Compound 86, ethyl 2-[2-(4-cyclobutylpiperazin-1-yl)-2-oxoethyl]-1,2,3,4-tetrahydroisoquinoline-6-carboxylate], the Ki was < 1000 nM.

For `CC1CCCN1C(=O)c1ccc2c(c1)CCN(CC(=O)N1CCN(C3CCC3)CC1)C2` (centres unmarked) [Compound 87, 2-[2-(4-cyclobutylpiperazin-1-yl)-2-oxoethyl]-6-[(2-methylpyrrolidin-1-yl)carbonyl]-1,2,3,4-tetrahydroisoquinoline], the Ki was < 1000 nM.

Consider `CC(C)[C@@H]1CN(C(=O)CN2CCc3cc(-c4cncnc4)ccc3C2)CCN1C1CCC1` [Compound 189, 2-{2-[(3R)-4-cyclobutyl-3-isopropylpiperazin-1-yl]-2-oxoethyl}-6-pyrimidin-5-yl-1,2,3,4-tetrahydroisoquinoline], for which the Ki is < 1000 nM.

As for `O=C(CN1CCc2nc(-c3ccccn3)ncc2C1)N1CCN(C2CCC2)CC1` [Compound 144, 6-[2-(4-cyclobutylpiperazin-1-yl)-2-oxoethyl]-2-pyridin-2-yl-5,6,7,8-tetrahydropyrido[4,3-d]pyrimidine], the Ki was < 1000 nM.

As for `Cn1cc(-c2ccc3c(c2)CCN(CC(=O)N2CCN(C4CCC4)CC2)C3)ccc1=O` [Compound 192, 5-{2-[2-(4-cyclobutylpiperazin-1-yl)-2-oxoethyl]-1,2,3,4-tetrahydroisoquinolin-6-yl}-1-methylpyridin-2(1H)-one], the Ki was < 1000 nM.

For the molecule `O=C(CN1CCc2cc(-c3cncnc3)nnc2C1)N1CCN(C2CCC2)CC1` [Compound 232, 7-[2-(4-cyclobutylpiperazin-1-yl)-2-oxoethyl]-3-pyrimidin-5-yl-5,6,7,8-tetrahydropyrido[3,4-c]pyridazine], the Ki was < 1000 nM.

In the case of `CCOC(=O)c1cnc2c(c1)CCN(CC(=O)N1CCN(C3CCC3)CC1)C2` [Compound 116, ethyl 7-[2-(4-cyclobutylpiperazin-1-yl)-2-oxoethyl]-5,6,7,8-tetrahydro-1,7-naphthyridine-3-carboxylate], the Ki was < 1000 nM.

For `O=C(CN1CCc2nc(N3CCCCC3)ccc2C1)N1CCN(C2CCC2)CC1` [Compound 222, 6-[2-(4-cyclobutylpiperazin-1-yl)-2-oxoethyl]-2-piperidin-1-yl-5,6,7,8-tetrahydro-1,6-naphthyridine], the Ki is < 1000 nM.

As for `CC(=O)c1nc2c(s1)CN(CC(=O)N1CCN(C3CCC3)CC1)CC2` [Compound 103, 1-{5-[2-(4-cyclobutylpiperazin-1-yl)-2-oxoethyl]-4,5,6,7-tetrahydro[1,3]thiazolo [5,4-c]pyridin-2-yl}ethanone], the Ki was < 1000 nM.

Consider `O=C(CN1CCc2c(cnn2-c2ccc(Br)cc2)C1)N1CCN(C2CCC2)CC1` [Compound 90, 1-(4-bromophenyl)-5-[2-(4-cyclobutylpiperazin-1-yl)-2-oxoethyl]-4,5,6,7-tetrahydro-1H-pyrazolo[4,3-c]pyridine], for which the Ki is < 1000 nM.

For `O=C(CN1CCc2cc(-n3ccc(C(F)(F)F)n3)ccc2C1)N1CCN(C2CCC2)CC1` [Compound 157, 2-[2-(4-cyclobutylpiperazin-1-yl)-2-oxoethyl]-6-[3-(trifluoromethyl)-1H-pyrazol-1-yl]-1,2,3,4-tetrahydroisoquinoline], the Ki is < 1000 nM.

As to `O=C(CN1CCc2cc(-n3nccn3)ccc2C1)N1CCN(C2CCC2)CC1` [Compound 209, 2-[2-(4-cyclobutylpiperazin-1-yl)-2-oxoethyl]-6-(2H-1,2,3-triazol-2-yl)-1,2,3,4-tetrahydroisoquinoline], the Ki is < 1000 nM.

The assay is the same for the next values; noted with them: Table II; assay of Example 7.
For the molecule `N#Cc1ccc(-n2cc3c(n2)CCN(CC(=O)N2CCN(C4CCC4)CC2)C3)nc1` [Compound 687, 6-{5-[2-(4-cyclobutylpiperazin-1-yl)-2-oxoethyl]-4,5,6,7-tetrahydro-2H-pyrazolo[4,3-c]pyridin-2-yl}nicotinonitrile], the Ki was < 1000 nM.

Still in this assay, the particulars now being: assay of Example 7; "*" in Ki of Table II.
As to `CN(C)c1ccc(-c2nc3c(s2)CN(CC(=O)N2CCN(C4CCC4)CC2)CC3)cc1` [Compound 331, 4-{5-[2-(4-cyclobutylpiperazin-1-yl)-2-oxoethyl]-4,5,6,7-tetrahydro[1,3]thiazolo [5,4-c]pyridin-2-yl}-N,N-dimethylaniline], the Ki was < 1000 nM.

Take `CC(C)c1cccc(-c2nc3c(s2)CN(CC(=O)N2CCN(C4CCC4)CC2)CC3)c1` [Compound 306, 5-[2-(4-cyclobutylpiperazin-1-yl)-2-oxoethyl]-2-(3-isopropylphenyl)-4,5,6,7-tetrahydro[1,3]thiazolo [5,4-c]pyridine]: the Ki is < 1000 nM.

As for `COc1cccc(-c2nc3c(s2)CN(CC(=O)N2CCN(C4CCC4)CC2)CC3)c1` [Compound 315, 5-[2-(4-cyclobutylpiperazin-1-yl)-2-oxoethyl]-2-(3-methoxyphenyl)-4,5,6,7-tetrahydro[1,3]thiazolo [5,4-c]pyridine], the Ki was < 1000 nM.

For `CC(C)(C)c1ccc(-c2nc3c(s2)CN(CC(=O)N2CCN(C4CCC4)CC2)CC3)cc1` [Compound 314, 2-(4-tert-butylphenyl)-5-[2-(4-cyclobutylpiperazin-1-yl)-2-oxoethyl]-4,5,6,7-tetrahydro[1,3]thiazolo [5,4-c]pyridine], the inhibitory constant (Ki) is < 1000 nM.

For `COc1ccc(Cl)cc1-c1nc2c(s1)CN(CC(=O)N1CCN(C3CCC3)CC1)CC2` [Compound 338, 2-(5-chloro-2-methoxyphenyl)-5-[2-(4-cyclobutylpiperazin-1-yl)-2-oxoethyl]-4,5,6,7-tetrahydro[1,3]thiazolo [5,4-c]pyridine], the Ki is < 1000 nM.

For the molecule `COc1cccc(-c2ccc3c(c2)CCN(CC(=O)N2CCN(C4CCCC4)CC2)C3)c1` [Compound 476, 2-[2-(4-cyclopentylpiperazin-1-yl)-2-oxoethyl]-6-(3-methoxyphenyl)-1,2,3,4-tetrahydroisoquinoline], the Ki was < 1000 nM.
